# Peptide text beside a SMILES is read from it.
# Key:
# FPR1 = target: T1, FPR1 (Homo sapiens, UniProt P21462); assay: Change in calcium activity by peptide, FPR1 activation effect; assay type: cell-based; settings: calcium activity (Fura-2), graded per Table 3, read-out: EC50 for [Ca^2+] FPR1
# T1 sequence (P21462 1-350): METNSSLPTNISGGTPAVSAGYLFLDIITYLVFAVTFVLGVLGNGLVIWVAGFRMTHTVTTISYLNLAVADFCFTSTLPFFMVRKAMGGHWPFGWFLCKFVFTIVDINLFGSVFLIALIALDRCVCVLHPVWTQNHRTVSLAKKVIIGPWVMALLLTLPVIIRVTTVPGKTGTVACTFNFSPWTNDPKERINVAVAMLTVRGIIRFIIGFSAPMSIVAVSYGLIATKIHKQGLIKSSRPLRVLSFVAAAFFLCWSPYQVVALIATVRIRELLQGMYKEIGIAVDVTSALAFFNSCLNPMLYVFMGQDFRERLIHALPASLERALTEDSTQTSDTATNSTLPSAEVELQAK
# Experimental: The day before measuring calcium activity, the cells were prepared at 3×10^5 cells per well in a 96-well flat clear bottom black plate (Costar, #3603). The prepared cells were treated with a Fura-2 QBT calcium kit (component A; Molecular Devices, #8197) at the same volume per well. After incubation at 37° C. for 1 hour, the cells were incubated in a dark room at room temperature for 30 minutes. After the Fura-2-treated cells, the prepared peptide, and a dedicated tip were placed at each section of FlexStation 3 Multi-Mode Microplate Reader (Molecular Devices, #Flex3), changes in calcium activity caused by the peptides were measured using SoftMax Pro 7 Software (Molecular Devices, #FLEX3-INSTALL-OS). […]
# FPR2 = target: T2, FPR2 (Homo sapiens, UniProt P25090); assay: Change in calcium activity by peptide (Fura-2) in RBL cells overexpressing FPR2; assay type: cell-based; settings: calcium activity (Fura-2), graded per Table 3, read-out: EC50 for [Ca^2+] FPR2
# T2 construct: expressed in transfected cells; host or cells: RBL cells (RBL-FPR2)
# T2 sequence (P25090 1-351): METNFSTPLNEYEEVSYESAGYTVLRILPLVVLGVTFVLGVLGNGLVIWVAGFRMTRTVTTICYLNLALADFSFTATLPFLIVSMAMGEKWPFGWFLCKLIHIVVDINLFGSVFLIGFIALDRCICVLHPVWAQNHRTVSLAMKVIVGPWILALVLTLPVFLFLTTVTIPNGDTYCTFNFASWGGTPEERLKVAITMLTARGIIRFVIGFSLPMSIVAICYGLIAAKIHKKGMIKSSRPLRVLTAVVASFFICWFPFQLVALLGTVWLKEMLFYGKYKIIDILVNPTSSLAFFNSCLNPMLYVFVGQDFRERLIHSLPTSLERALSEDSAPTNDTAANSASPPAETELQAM
# Experimental: The present inventors observed changes in calcium ion permeability to confirm whether the immunomodulatory peptide candidates prepared according to one example of the present invention activate the immune function of a living organism. Specifically, the concentration of calcium ions in cells was measured to confirm whether the peptides activate FPR2.
# A peptide dissolved in water or 50% DMSO at a concentration of 0.5 mM was prepared by diluting it to an appropriate concentration in HBSS (Sigma, #55037C)+20 mM HEPES buffer.
# In this experiment, the cells were cultured in DMEM (Lonza, #BE12-604F) containing 10% fetal bovine serum (FBS) and 1% penicillin-streptomycin under conditions of 37° C. and 5% CO2.
# The day before measuring calcium activity, the cells were prepared at 3×10^5 cells per well in a 96-well flat clear bottom black plate (Costar, #3603). The prepared cells were treated with a Fura-2 QBT calcium kit (component A; Molecular Devices, #8197) at the same volume per well. After incubation at 37° C. for 1 hour, the cells were incubated in a dark room at room temperature for 30 minutes. After the Fura-2-treated cells, the prepared peptide, and a dedicated tip were placed at each section of FlexStation 3 Multi-Mode Microplate Reader (Molecular Devices, #Flex3), changes in calcium activity caused by the peptides were measured using SoftMax Pro 7 Software (Molecular Devices, #FLEX3-INSTALL-OS).
SMILES,EC50 (FPR1),EC50 (FPR2)
CSCC[C@H](N)C(=O)N[C@@H](CCCNC(=N)N)C(=O)N[C@@H](Cc1ccc(O)cc1)C(=O)N[C@@H](Cc1ccc(O)cc1)C(=O)N[C@H](C(=O)N[C@H](CCSC)C(N)=O)C(C)C [Peptide 100] (HELM PEPTIDE1{M.R.Y.Y.V.[dM].[am]}$$$$V2.0),1000 to 10000 nM,< 10 nM
CC[C@H](C)[C@H](N)C(=O)N[C@@H](CCCCN)C(=O)N[C@@H](CCCCN)C(=O)N[C@@H](Cc1c[nH]c2ccccc12)C(=O)N[C@@H](CCSC)C(=O)N[C@H](CCSC)C(N)=O [Peptide 130] (HELM PEPTIDE1{I.K.K.W.M.[dM].[am]}$$$$V2.0),> 10000 nM,11 to 100 nM
CCCCCCCC(=O)N[C@@H](Cc1c[nH]cn1)C(=O)N[C@@H](CCSC)C(=O)N[C@@H](CCCCN)C(=O)N[C@@H](Cc1ccc(O)cc1)C(=O)N[C@@H](CCCCN)C(=O)N[C@H](C(=O)N[C@H](CCSC)C(N)=O)C(C)C [Peptide 24] (HELM PEPTIDE1{[CCCCCCCC(=O)[*:2]].H.M.K.Y.K.V.[dM].[am]}$$$$V2.0),> 10000 nM,< 10 nM
CCCC(=O)N[C@@H](CCCNC(=N)N)C(=O)N[C@@H](CCSC)C(=O)N[C@@H](CCCNC(=N)N)C(=O)N[C@@H](Cc1ccc(O)cc1)C(=O)N[C@@H](CCCCN)C(=O)N[C@H](C(=O)N[C@H](CCSC)C(N)=O)C(C)C [Peptide 7] (HELM PEPTIDE1{[CCCC(=O)[*:2]].R.M.R.Y.K.V.[dM].[am]}$$$$V2.0),> 10000 nM,< 10 nM
CSCC[C@@H](NC(=O)[C@H](Cc1ccc(O)cc1)NC(=O)[C@H](CCCCN)NC(=O)[C@H](Cc1ccc(O)cc1)NC(=O)[C@H](CCCNC(=N)N)NC(=O)[C@H](Cc1c[nH]c2ccccc12)NC(=O)[C@@H](N)CCCNC(=N)N)C(N)=O [Peptide 32] (HELM PEPTIDE1{R.W.R.Y.K.Y.[dM].[am]}$$$$V2.0),> 10000 nM,11 to 100 nM
CC[C@H](C)[C@H](N)C(=O)N[C@@H](CCCCN)C(=O)N[C@@H](Cc1ccccc1)C(=O)N[C@@H](CCCCN)C(=O)N[C@@H](Cc1ccc(O)cc1)C(=O)N[C@H](CCSC)C(N)=O [Peptide 131] (HELM PEPTIDE1{I.K.F.K.Y.[dM].[am]}$$$$V2.0),> 10000 nM,11 to 100 nM
CSCC[C@@H](NC(=O)[C@@H]1CCCN1C(=O)[C@H](CCCCN)NC(=O)[C@H](Cc1ccc(O)cc1)NC(=O)[C@H](CCCCN)NC(=O)[C@H](Cc1c[nH]cn1)NC(C)=O)C(N)=O [Peptide 147] (HELM PEPTIDE1{[ac].H.K.Y.K.P.[dM].[am]}$$$$V2.0),> 10000 nM,< 10 nM
CSCC[C@H](NC(=O)[C@H](CCCNC(=N)N)NC(C)=O)C(=O)N[C@@H](CCCNC(=N)N)C(=O)N[C@@H](Cc1ccc(O)cc1)C(=O)N[C@@H](Cc1c[nH]c2ccccc12)C(=O)N1CCC[C@H]1C(=O)N[C@H](CCSC)C(N)=O [Peptide 107] (HELM PEPTIDE1{[ac].R.M.R.Y.W.P.[dM].[am]}$$$$V2.0),101 to 1000 nM,< 10 nM
CCCCCCCC(=O)N[C@@H](CCCCN)C(=O)N[C@@H](CCSC)C(=O)N[C@@H](CCCCN)C(=O)N[C@@H](Cc1ccc(O)cc1)C(=O)N[C@@H](CCCCN)C(=O)N[C@H](C(=O)N[C@H](CCSC)C(N)=O)C(C)C [Peptide 12] (HELM PEPTIDE1{[CCCCCCCC(=O)[*:2]].K.M.K.Y.K.V.[dM].[am]}$$$$V2.0),> 10000 nM,11 to 100 nM
CSCC[C@@H](NC(=O)[C@@H](NC(=O)[C@H](CCCCN)NC(=O)[C@H](Cc1ccc(O)cc1)NC(=O)[C@H](CCCNC(=N)N)NC(=O)[C@H](Cc1c[nH]c2ccccc12)NC(=O)[C@@H](N)CCCNC(=N)N)C(C)C)C(N)=O [Peptide 1] (HELM PEPTIDE1{R.W.R.Y.K.V.[dM].[am]}$$$$V2.0),> 10000 nM,< 10 nM
CCCCCCCC(=O)N[C@H](C(=O)N[C@@H](CCCCN)C(=O)N[C@@H](Cc1ccc(O)cc1)C(=O)N[C@@H](CCCCN)C(=O)N1CCC[C@H]1C(=O)N[C@H](CCSC)C(N)=O)[C@@H](C)CC [Peptide 145] (HELM PEPTIDE1{[CCCCCCCC(=O)[*:2]].I.K.Y.K.P.[dM].[am]}$$$$V2.0),> 10000 nM,11 to 100 nM
CCCCCCCC(=O)N1CCC[C@H]1C(=O)N[C@@H](CCSC)C(=O)N[C@@H](CCCNC(=N)N)C(=O)N[C@@H](Cc1ccc(O)cc1)C(=O)N[C@@H](CCCCN)C(=O)N1CCC[C@H]1C(=O)N[C@H](CCSC)C(N)=O [Peptide 65] (HELM PEPTIDE1{[CCCCCCCC(=O)[*:2]].P.M.R.Y.K.P.[dM].[am]}$$$$V2.0),> 10000 nM,< 10 nM
CSCC[C@H](N)C(=O)N[C@@H](CCCNC(=N)N)C(=O)N[C@@H](Cc1ccc(O)cc1)C(=O)N[C@@H](CCCCN)C(=O)N[C@@H](Cc1ccc(O)cc1)C(=O)N[C@H](CCSC)C(N)=O [Peptide 41] (HELM PEPTIDE1{M.R.Y.K.Y.[dM].[am]}$$$$V2.0),> 10000 nM,< 10 nM
CCCC(=O)N[C@@H](Cc1c[nH]cn1)C(=O)N[C@@H](CCSC)C(=O)N[C@@H](CCCCN)C(=O)N[C@@H](Cc1ccc(O)cc1)C(=O)N[C@@H](Cc1ccc(O)cc1)C(=O)N[C@@H](Cc1ccc(O)cc1)C(=O)N[C@H](CCSC)C(N)=O [Peptide 127] (HELM PEPTIDE1{[CCCC(=O)[*:2]].H.M.K.Y.Y.Y.[dM].[am]}$$$$V2.0),> 10000 nM,< 10 nM
CSCC[C@H](NC(=O)[C@H](Cc1c[nH]cn1)NC(C)=O)C(=O)N[C@@H](CCCCN)C(=O)N[C@@H](Cc1ccc(O)cc1)C(=O)N[C@@H](CCCCN)C(=O)N[C@H](C(=O)N[C@H](CCSC)C(N)=O)C(C)C [Peptide 22] (HELM PEPTIDE1{[ac].H.M.K.Y.K.V.[dM].[am]}$$$$V2.0),> 10000 nM,< 10 nM
CSCC[C@H](NC(=O)[C@H](CCCNC(=N)N)NC(C)=O)C(=O)N[C@@H](CCCNC(=N)N)C(=O)N[C@@H](Cc1ccc(O)cc1)C(=O)N[C@@H](Cc1c[nH]c2ccccc12)C(=O)N[C@H](C(=O)N[C@H](CCSC)C(N)=O)C(C)C [Peptide 104] (HELM PEPTIDE1{[ac].R.M.R.Y.W.V.[dM].[am]}$$$$V2.0),1000 to 10000 nM,< 10 nM
CSCC[C@H](NC(=O)[C@H](CCCNC(=N)N)NC(C)=O)C(=O)N[C@@H](CCCNC(=N)N)C(=O)N[C@@H](Cc1ccc(O)cc1)C(=O)N[C@@H](CCCCN)C(=O)N1CCC[C@H]1C(=O)N[C@H](CCSC)C(N)=O [Peptide 51] (HELM PEPTIDE1{[ac].R.M.R.Y.K.P.[dM].[am]}$$$$V2.0),> 10000 nM,< 10 nM
CCCC(=O)N[C@@H](Cc1c[nH]cn1)C(=O)N[C@@H](CCSC)C(=O)N[C@@H](CCCCN)C(=O)N[C@@H](Cc1ccc(O)cc1)C(=O)N[C@@H](CCCCN)C(=O)N[C@H](C(=O)N[C@H](CCSC)C(N)=O)C(C)C [Peptide 23] (HELM PEPTIDE1{[CCCC(=O)[*:2]].H.M.K.Y.K.V.[dM].[am]}$$$$V2.0),> 10000 nM,< 10 nM
CSCC[C@H](NC(C)=O)C(=O)N[C@@H](CCCNC(=N)N)C(=O)N[C@@H](Cc1ccc(O)cc1)C(=O)N[C@@H](CCCCN)C(=O)N[C@@H](Cc1ccc(O)cc1)C(=O)N[C@H](CCSC)C(N)=O [Peptide 42] (HELM PEPTIDE1{[ac].M.R.Y.K.Y.[dM].[am]}$$$$V2.0),> 10000 nM,11 to 100 nM
CCCC(=O)N1CCC[C@H]1C(=O)N[C@@H](CCSC)C(=O)N[C@@H](CCCNC(=N)N)C(=O)N[C@@H](Cc1ccc(O)cc1)C(=O)N[C@@H](CCCCN)C(=O)N1CCC[C@H]1C(=O)N[C@H](CCSC)C(N)=O [Peptide 64] (HELM PEPTIDE1{[CCCC(=O)[*:2]].P.M.R.Y.K.P.[dM].[am]}$$$$V2.0),> 10000 nM,< 10 nM

# From patent US20250361268A1, “NOVEL ANTI-INFLAMMATORY PEPTIDE AND USE THEREOF” (NOVACELL TECHNOLOGY INC., priority 2022, published 2025)
